Series [1] in a line: Cytotoxicity (CC50) determination, crystal violet assay. The series is classed as cell-based. To be noted: African green monkey. How it is done: To assess the half-maximal cytotoxic concentration (CC50), stock solutions of the compounds were prepared in 10% DMSO in ddH2O and diluted further to the working solutions with DMEM. The cytotoxic activity of the extracts was tested in VERO-E6 cells by using a crystal violet assay, as previously described with minor modifications. Briefly, the cells were seeded in 96 well-plates (100 µL/well at a density of 3 × 10^5 cells/mL) and incubated for 24 h at 37 °C in 5% CO2. Control cells were treated with 1% DMSO in DMEM (the concentration of DMSO in the highest concentration of the tested samples). After 24 h, the cells were treated with various concentrations of the compounds in triplicates. After 72 h, the supernatant was discarded, and the cell monolayers were fixed with 10% formaldehyde for 1 h at room temperature (RT). The fixed monolayers were, then, dried and stained with 50 µL of 0.1% crystal violet for 20 min on a bench rocker at RT. The monolayers were, then, washed and dried, and the crystal violet dye in each well was dissolved with 200 µL methanol for 20 min on a bench rocker at RT. […]
All experiments were performed in three biological repeats. […] The IC50 and CC50 curves represent the nonlinear fit of “normalize” of “transform” of the obtained data; their values were calculated using GraphPad prism as “best fit value”.

In series [2] the test system is SARS-CoV-2 "NRC-03-nhCoV" virus. In words: In vitro anti-SARS-CoV-2 activity, IC50 by reduction of virus-induced cytopathic effect in Vero-E6 cells. Type of series: cell-based. To be noted: read-out: inhibitory concentration 50% (IC50) against NRC-03-nhCoV.
Series [3] concerns SARS-CoV-2 Mpro. Conditions: stated in the abstract for the reference standard; method and reference not given; cited from earlier work.
Where [4] appears, read: Severe acute respiratory syndrome coronavirus 2, Vero C1008, 72 h.

SMILES strings stand for the structures. In brackets after ≈: the same amount, converted by molar mass. Where two headings read alike, the source gives them in different places.

The compound `COc1ccc(-c2cc(=O)c3c(O)c(OC)c(OC)c(OC)c3o2)cc1` [Compound 4, Gardenin B] came in with a CC50 at 72 h in series [1] of 14100 µg/mL (≈ 39400 µM). Moreover, in series [2] (Severe acute respiratory syndrome coronavirus 2, Vero C1008, Vero-E6 cells, 100 TCID50, 72 h, CPE reduction), the IC50 was determined as 128 µg/mL (≈ 357 µM).

With `COc1ccc(-c2cc(=O)c3c(O)c(OC)c(O)cc3o2)cc1` [Compound 2, Pectolinarigenin], the IC50 in series [2] (setting [4]) is 12.4 µg/mL (≈ 39.5 µM).

On to `COc1ccc(-c2cc(=O)c3c(OC)c(OC)c(OC)c(OC)c3o2)cc1` [Compound 3, Tangeretin], for which the IC50 in series [2] (setting [4]) was found to be 2.5 µg/mL (≈ 6.71 µM).

Regarding `COc1c(O)cc2oc(-c3ccc(O)cc3)cc(=O)c2c1O` [Compound 5, Hispidulin], the CC50 at 72 h in series [1] (Vero E6 cells, 72 h, crystal violet, read-out: half-maximal cytotoxic concentration (CC50)) came out at 14100 µg/mL (≈ 47100 µM). Moreover, the IC50 in series [2] (setting [4]) is 883 µg/mL (≈ 2940 µM).

As for `CC(C)(C)OC(=O)Nc1cccn(C(CC2CC2)C(=O)NC(CC2CCNC2=O)C(=O)C(=O)NCc2ccccc2)c1=O` (stereo not shown) [KI], the IC50 in series [3] is given as 66.72 µg/mL (≈ 112 µM).
